Reference: US20260174875A1 (Novo Nordisk A/S, priority 2023, published 2026)
Read-outs that look alike come from different tables or passages of the source. Numbered stars: 1 amine (or outer) side, 2 acyl side, 3 side chain; on linkers, the order of the positions; unused ones are H or OH. Square brackets hold non-standard residues; d marks the D form. Side chains are listed from the residue outwards. * marks the point of attachment. C20 diacid = O=C(O)CCCCCCCCCCCCCCCCCCC(=O)*; C18 diacid = O=C(O)CCCCCCCCCCCCCCCCC(=O)*; γGlu = O=C(O)[C@H](CCC(=O)[*:2])N[*:1]; AEEA = NCCOCCOCC(=O)O; Aib = CC(C)(N)C(=O)O

Tests used:
Format in all cases: cell-based
[1] = biological target: T1, human GLP-1 receptor (hGLP-1R) (Homo sapiens, UniProt P43220); experiment: GLP-1 receptor assay, method A (CRE-luciferase reporter, BHK cells)
T1 construct: expressed in transfected cells
T1 sequence (P43220 24-463): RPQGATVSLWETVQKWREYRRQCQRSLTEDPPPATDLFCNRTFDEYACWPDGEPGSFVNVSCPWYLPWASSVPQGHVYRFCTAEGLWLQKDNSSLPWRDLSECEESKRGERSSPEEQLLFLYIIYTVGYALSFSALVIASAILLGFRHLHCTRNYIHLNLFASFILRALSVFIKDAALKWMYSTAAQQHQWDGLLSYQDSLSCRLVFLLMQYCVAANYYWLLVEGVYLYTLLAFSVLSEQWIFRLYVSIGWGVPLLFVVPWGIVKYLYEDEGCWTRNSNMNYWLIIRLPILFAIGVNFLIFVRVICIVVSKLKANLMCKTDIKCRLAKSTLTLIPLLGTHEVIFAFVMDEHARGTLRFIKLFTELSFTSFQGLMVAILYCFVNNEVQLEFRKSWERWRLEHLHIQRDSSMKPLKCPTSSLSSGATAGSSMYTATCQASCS
Description: (§1) To assess how the activation of the receptors is potentially influenced by the presence of human serum albumin (HSA), the in vitro assays were performed in the absence of HSA and presence of 1% (w/v) HSA.
Cells at approximately 80-90% confluence were washed once in PBS (Gibco 14190-094) and loosened from the cell flasks with Versene (Gibco, 15040-033). […] Cells were aliquoted and stored at −180° C. until use.
(§2) The assay buffer consisted of DMEM without phenol red (Gibco, 11880-028) supplemented with 1× GlutaMAX (Gibco, 35050-038), 10 mM HEPES (Gibco, 15630-056), 1% (w/v) ovalbumin (Sigma, A5503) and 0.1% (v/v) Pluronic F-68 (Gibco, 24040-032) either with HSA or without HSA (Sigma, A9511).
Frozen stocks of hGLP-1R BHK CRE-Luc cells were thawed in a 37° C. water bath, washed once in PBS (Gibco 14190-094) and diluted to 1.5×10^6 (1.5E+6) cells/mL in assay buffer with or without 2% (w/v) HSA (Sigma, A9511). […] The assay plates were incubated for 3 hours at 37° C. in 5% CO2, left at room temperature for 5 minutes after which 100 μL steadylite Plus™ (PerkinElmer/Revvity, 6066759) was added to each well. Plates were sealed and incubated at room temperature with gentle shaking for 30 minutes while protected from light. Luminescence was detected on a luminescence plate reader e.g., a Synergy 2 (BioTek).

[2] = biological target: T2, human GIP receptor (hGIPR) (Homo sapiens, UniProt P48546); experiment: GIP receptor assay, method A (CRE-luciferase reporter, BHK cells)
T2 construct: expressed in transfected cells
T2 sequence (P48546 22-466): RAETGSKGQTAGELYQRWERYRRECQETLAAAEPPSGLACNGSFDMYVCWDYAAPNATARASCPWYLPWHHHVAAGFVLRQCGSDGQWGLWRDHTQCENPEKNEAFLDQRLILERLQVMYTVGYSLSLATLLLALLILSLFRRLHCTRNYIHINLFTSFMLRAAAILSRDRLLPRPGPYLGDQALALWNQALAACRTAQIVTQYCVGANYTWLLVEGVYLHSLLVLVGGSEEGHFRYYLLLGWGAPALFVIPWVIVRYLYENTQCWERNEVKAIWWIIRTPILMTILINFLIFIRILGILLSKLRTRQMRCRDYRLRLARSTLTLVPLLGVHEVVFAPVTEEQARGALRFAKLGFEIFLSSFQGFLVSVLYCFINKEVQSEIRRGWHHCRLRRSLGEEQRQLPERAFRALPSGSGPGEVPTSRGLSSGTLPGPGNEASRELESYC
Description: To assess how the activation of the receptors is potentially influenced by the presence of human serum albumin (HSA), the in vitro assays were performed in the absence of HSA and presence of 1% (w/v) HSA. Unless stated otherwise the reference to the “GIP receptor assay as described in Example 4” throughout the specification shall refer to the described herein assay procedure method A (hGIPR assay) in the absence of HSA.
Activation of the human GIP receptor leads to increased intra-cellular concentrations of cyclic AMP (cAMP) and the consequent transcription activation from promoters containing multiple copies of the cAMP response element (CRE). It is thus possible to measure GIP receptor activity using a CRE-luciferase reporter gene introduced into Baby Hamster Kidney (BHK) cells co-expressing the human GIP receptor.
Cells at about 80-90% confluency were washed once with PBS (Gibco 14190-094) and detached from the cell flasks with Versene (Gibco, 15040-066). After centrifugation, the cells were counted, resuspended and diluted to approximately 1.5-3.0×10^6 (1.5E+6 to 3.0E+6) cells/mL in Recovery Cell Culture Freezing Medium (Gibco, 12648-010) and stored at −180° C. in suitable aliquots until use.
as §2
On the day before the assay hGIPR BHK Cre-Luc cells were thawed and plated out in 96 well Culture Plates (PerkinElmer/Revvity, 6005680) at 5.0×10^3 (5.0E+3) cells/well in growth medium as described above. The plates were then incubated for 21-23 hours at 37° C. with 5% CO2. On the day of the assay GLP-1-/GIP-/amylin-receptor tri-agonists or reference compounds were diluted in assay buffer using a 7-point, 10-fold titration plus a blank (absence of compound). Each compound was diluted and tested in duplicates in each experiment. In the plates containing the cells the growth medium was removed, and cells were washed twice with 100 μL PBS (Gibco 14190-094). 50 μL of the test compound dilutions were added to the plates containing cells preceded by 50 μL assay buffer with or without 2% (w/v) HSA (Sigma, A9511). The cell plates were incubated for 3 hours in a 5% CO2 incubator at 37° C. The plates were then transferred to room temperature followed by addition of 100 μL steadylite Plus™ (PerkinElmer/Revvity, 6066759). The plates were sealed and shaken for 30 minutes at room temperature while protected from light. Finally, luminescence (as an indicator of receptor activation) was measured on a Mithras reader (Berthold Technologies, DE). The EC50-values [pM] were calculated by non-linear curve fitting applying a four-parameter logistic model (Hill slope=“shared value for all datasets”) using GraphPad Prism (GraphPad Software, Boston, MA, USA).

[3] = biological target: T3, human amylin receptor (hAMYR3) (Homo sapiens, UniProt O60896+P30988); experiment: Amylin receptor assay, method A (CRE-luciferase reporter, BHK cells)
T3 construct: host or cells: BHK cells (Hollex-1 line expressing hCTR(a) and CRE-Luc), further transfected with human RAMP3
T3 sequence (P30988 25-474): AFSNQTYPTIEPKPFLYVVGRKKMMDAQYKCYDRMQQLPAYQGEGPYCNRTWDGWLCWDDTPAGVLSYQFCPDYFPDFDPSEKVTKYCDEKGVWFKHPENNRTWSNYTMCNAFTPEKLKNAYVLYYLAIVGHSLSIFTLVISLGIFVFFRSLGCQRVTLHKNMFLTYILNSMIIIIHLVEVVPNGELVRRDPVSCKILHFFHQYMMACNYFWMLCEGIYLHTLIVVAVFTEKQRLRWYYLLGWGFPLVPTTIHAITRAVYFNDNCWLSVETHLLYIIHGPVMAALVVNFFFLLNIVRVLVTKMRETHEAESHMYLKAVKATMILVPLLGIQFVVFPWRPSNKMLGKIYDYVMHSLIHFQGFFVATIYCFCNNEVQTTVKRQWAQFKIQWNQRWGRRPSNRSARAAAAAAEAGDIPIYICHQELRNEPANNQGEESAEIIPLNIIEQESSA
T3 sequence (O60896 24-148): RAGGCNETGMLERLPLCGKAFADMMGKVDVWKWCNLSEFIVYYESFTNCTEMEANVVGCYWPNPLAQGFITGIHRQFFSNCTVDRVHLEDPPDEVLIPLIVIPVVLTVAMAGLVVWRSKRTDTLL
Description: as §1
It is thus possible to measure hAMYR3 activity using a CRE-luciferase reporter gene introduced into Baby Hamster Kidney (BHK) cells co-expressing the hAMYR3.
The cell line was further transfected with human receptor modifying protein 3 (RAMP3) using standard methods.
After centrifugation, the cell pellet was resuspended and diluted to approximately 2.5-4.0×10^6 (2.5E+6 to 4.0E+6) cells/mL in Recovery™ Cell Culture Freezing Medium (Gibco, 12648-010). Cells were aliquoted and stored at −180° C. until use.
The assay buffer consisted of DMEM without phenol red (Gibco, 11880-028) supplemented with 1× GlutaMAX (Gibco, 35050-038), 10 mM HEPES (Gibco, 15630-056) and 1% (w/v) ovalbumin (Sigma, A5503) either with or without 0.1% (v/v) Pluronic F-68 (Gibco, 24040-032) and either with or without HSA (Sigma, A9511).
The plate was incubated over night at 37° C. in 5% CO2. […] Luminescence was detected on a luminescence plate reader e.g., a Synergy 2 (BioTek).

[4] = hGLP-1R Potency, 1% HSA, EC50, method A, in the presence of 1% HSA
[5] = method A, absence of HSA, read-out: hGLP-1R Potency, no HSA, EC50
[6] = hGIPR Potency, 1% HSA, EC50, method A, in the presence of 1% HSA
[7] = method A, absence of HSA, read-out: hGIPR Potency, no HSA, EC50
[8] = hAMYR3 Potency, 1% HSA, EC50, method A, in the presence of 1% HSA
[9] = method A, absence of HSA, read-out: hAMYR3 Potency, no HSA, EC50
[10] = hGLP-1R Potency, no HSA, EC50, method A, absence of HSA
[11] = hGIPR Potency, no HSA, EC50, method A, absence of HSA
[12] = hAMYR3 Potency, no HSA, EC50, method A, absence of HSA

Substance	EC50 [1, 4] [pM]	EC50 [1, 5] [pM]	EC50 [2, 6] [pM]	EC50 [2, 7] [pM]	EC50 [3, 8] [pM]	EC50 [3, 9] [pM]	EC50 [1, 10] [pM]	EC50 [2, 11] [pM]	EC50 [3, 12] [pM]
H[Aib]HGTFTSDYSILLEEQAAREFIEWLLAGGPSGGEASHLSTAQTQRLSAELHK([AEEA-AEEA-γGlu-C18 diacid])LATLPRTETGSGSP-NH2 [Compound 75]	25.2	3.66	11.9	2.65	110	2.49	–	–	–
H[Aib]HGTFTSDYSILLEEQAAREFIEWLLAGGPSK([AEEA-AEEA-γGlu-C18 diacid])GALAQTLGTNEASELSTAALGRLSAELHRLATLPRTETGSGSP-NH2 [Compound 44]	–	3.68	–	6.3	–	3.8	–	–	–
H[Aib]HGTFTSDYSILLEEQAAREFIEWLLAGGPSK([AEEA-AEEA-γGlu-C18 diacid])GALAQTLGTNEASHLSTAQTQRLSAELHELATLPRTETGSGSP-NH2 [Compound 45]	112	4.78	132	2.63	62.4	4.69	–	–	–
H[Aib]HGTFTSDYSILLEEQAAREFIEWLLAGGPSK([AEEA-AEEA-γGlu-C18 diacid])GAPPPSGGGASELSTAALGRLSAELHRLATLPRTETGSGSP-NH2 [Compound 86]	130	6.69	122	5.11	58.4	3.31	–	–	–
H[Aib]HGTFTSDYSILLEEQAAREFIEWLLAGGPSK([AEEA-AEEA-γGlu-C18 diacid])GAPPPSGGGEASELSTAALGRLSAELHRLATLPRTETGSGSP-NH2 [Compound 30]	–	6.37	–	6.8	–	2.28	–	–	–
H[Aib]HGTFTSDYSILLEEQAAREFIEWLLAGGPSK([AEEA-AEEA-γGlu-C18 diacid])GEASELSTAALGRLSAELHRLATLPRTETGSGSP-NH2 [Compound 25]	–	2.87	–	4.27	–	3.22	–	–	–
H[Aib]HGTFTSDYSILLEEQAAREFIEWLLAGGPSK([AEEA-AEEA-γGlu-C18 diacid])GEASQLSTAALGRLSAELHHLATLPRTETGSGSP-NH2 [Compound 66]	–	5.25	–	2.39	–	2.32	–	–	–
H[Aib]HGTFTSDYSILLEEQAAREFIEWLLAGGPSK([AEEA-AEEA-γGlu-C18 diacid])GEASQLSTAALGRLSAELHRLADLPRTETGSGSP-NH2 [Compound 43]	41.5	–	186	–	56.5	–	4.31	4.38	3.13
H[Aib]HGTFTSDYSILLEEQAAREFIEWLLAGGPSK([γGlu-C18 diacid])GAPPPSGGGEASHLSTAQTARLSAELHRLADLPRTETGSGSP-NH2 [Compound 112]	336	–	321	–	269	–	4.37	2.42	3.65
H[Aib]HGTFTSDYSILLEEQAAREFIEWLLAGGPSRGAPPPSGGGEASELSTAALGRLSAELHK([AEEA-AEEA-γGlu-C18 diacid])LATLPRTETGSGSP-NH2 [Compound 70]	18.4	3.48	19.1	5.89	59.4	4.53	–	–	–
H[Aib]HGTFTSDYSILLEEQAAREFIEWLLAGGPSRGAPPPSGGGEASHLSTQTQGRLSAELHK([AEEA-AEEA-γGlu-C18 diacid])LATLPRTETGSGSP-NH2 [Compound 71]	18.4	3.34	9.28	2.77	274	8.66	–	–	–
H[Aib]HGTFTSDYSILLEEQAAREFIEWLLAGGPSSGAGQAPGQAPGASHLSTAQTARLSAELHK([AEEA-AEEA-γGlu-C18 diacid])LATLPRTETGSGSP-NH2 [Compound 103]	33.1	5.24	13.3	3.14	73.6	2.42	–	–	–
H[Aib]HGTFTSDYSILLEEQAAREFIEWLLAGGPSSGAGQAPGQAPGASHLSTAQTARLSAELHK([AEEA-AEEA-γGlu-C20 diacid])LATLPRTETGSGSP-NH2 [Compound 104]	19.1	4.16	17.3	3.57	293	1.49	–	–	–
